Key:
pPKC delta = pPKC delta in PBMCs; type: in vivo, human; settings: all dose levels
Source text: (§1) Fresh metastatic tumour biopsies were collected at baseline (prior to first dose) and on treatment at C1D15 to evaluate the modulation of PKC substrate proteins in tumours following exposure to LXS196 and to perform exploratory transcriptome and targeted DNA sequencing. Whole blood samples (peripheral blood mononuclear cells; PBMCs) were collected pre-dose on C1D1 and D15, and at various time points post-dose on C1D1, D2, D3, D15 and D16 to evaluate the modulation of PKC substrate proteins in a surrogate tissue. Owing to the exploratory nature of this phase I study, formal statistical tests were not planned to be performed. Data are presented using descriptive statistics and visualisations. Continuous variables are described with the mean and range. Categorical variables are described using counts and percentages. PFS is described using the Kaplan–Meier (KM) method.

[1] = test system: skin-derived melanoma cell lines driven by mutant B-Raf or N-Ras; set-up: method as in ref 18 = [18]; 18. Visser M, Papillon J, Fan J, Luzzio M, Michael W, Wang R, et al. NVP-LXS196, a novel PKC inhibitor for the treatment of uveal melanoma. Paper presented at: Abstracts of papers of the American Chem; settings: cited from earlier work
patients with MUM = experiment: Patient disposition, duration of exposure and dose interruptions; type: in vivo
Experimental: During dose escalation, patients received oral LXS196 either once daily (QD; 100–1000 mg) or twice daily (BID; 200–400 mg) in 28-day cycles until disease progression, intolerable toxicity or withdrawal of consent (Supplementary Fig. 1). Dosing was omitted on the second day of the first cycle (C1D2) to allow for longer post-dose sampling in order to better characterise PK. LXS196 was given on an empty stomach, at least 1 h before or 2 h after a meal. Dose escalation was guided by safety, PK data and a two-parameter Bayesian Logistic Regression Model (BLRM) employing escalation with overdose control (EWOC) criteria. The DLT period lasted 28 days after the first dose of LXS196. […] Upon determination of the MTD/RDE, the expansion part of the study was opened to further evaluate the safety, tolerability, PK and PD of LXS196 at the RDE in patients with MUM. No hypothesis testing was planned in this study, and therefore, no formal sample size calculation was needed. The sample size was selected to ensure the BLRM had adequate operating characteristics when selecting the MTD/RDE.
Routine safety assessments, including laboratory assessments, physical examinations, vital signs and electrocardiograms (ECGs), were conducted at regular intervals throughout the study and more frequently as needed following patient assessment by the treating physician. Adverse events (AEs) were assessed continuously according to the National Cancer Institute Common Terminology Criteria for Adverse Events (NCI-CTCAE) v4.03.

[2] = test system: UM cell lines containing mutant GNAQ or GNA11; settings: cited from earlier work
PKC delta (pPKCd, S299) = experiment: pPKC delta in tumour biopsies (Sally Sue microcapillary electrophoresis); type: in vivo, human; settings: QD schedule
Source text: as §1, with “Categorical variables are described using counts and percentages. PFS is described using the Kaplan–Meier (KM) method.” left out
Custom assays were developed to measure the status of the PKC pathway. In brief, tumour tissue was homogenised in lysis buffer, and total protein concentrations were determined using a bicinchoninic acid (BCA) assay (Pierce). […] Total and phosphorylated PKCdelta (PKCd; pPKCd, phosphorylated at S299) levels were determined using microcapillary electrophoresis on the Sally Sue platform (Protein Simple, San Jose, CA, USA). Area under the peaks corresponding to the target was measured and used for further calculation. […]
Total and phosphorylated PKC delta were measured in all feasible tumour biopsies. […] The normalised PKC delta is calculated as follows: […]

92.1 human UM xenograft = test system: 92.1 human UM xenograft; set-up: method as in PMID 27507190; settings: doses below MTD; cited from earlier work

CC1(N)CCN(c2cccnc2NC(=O)c2nc(-c3ncccc3C(F)(F)F)cnc2N)CC1 [LXS196]
Time post-dose to reduction in pPKC delta in PBMCs (pPKC delta): ≤ 6 h
Cellular activity [1]: no activity observed
Dose interruption by reason: adverse event (patients with MUM; 300 mg BID (RDE) n=18): 3 (16.7) n (%)
Dose interruption by reason: patient/guardian decision (patients with MUM; 300 mg BID (RDE) n=18): 0 n (%)
Dose interruption by reason: physician decision (patients with MUM; 300 mg BID (RDE) n=18): 0 n (%)
With at least one dose interruption (patients with MUM; 300 mg BID (RDE) n=18): 3 (16.7) n (%)
With more than one dose interruption (patients with MUM; 300 mg BID (RDE) n=18): 1 (5.6) n (%)
With only one dose interruption (patients with MUM; 300 mg BID (RDE) n=18): 2 (11.1) n (%)
Dose interruption by reason: adverse event (patients with MUM; All BID n=30): 5 (16.7) n (%)
Dose interruption by reason: patient/guardian decision (patients with MUM; All BID n=30): 1 (3.3) n (%)
Dose interruption by reason: physician decision (patients with MUM; All BID n=30): 0 n (%)
With at least one dose interruption (patients with MUM; All BID n=30): 6 (20) n (%)
With more than one dose interruption (patients with MUM; All BID n=30): 3 (10.0) n (%)
With only one dose interruption (patients with MUM; All BID n=30): 3 (10) n (%)
Dose interruption by reason: adverse event (patients with MUM; All QD n=38): 11 (28.9) n (%)
Dose interruption by reason: patient/guardian decision (patients with MUM; All QD n=38): 0 n (%)
Dose interruption by reason: physician decision (patients with MUM; All QD n=38): 1 (2.6) n (%)
With at least one dose interruption (patients with MUM; All QD n=38): 11 (28.9) n (%)
With more than one dose interruption (patients with MUM; All QD n=38): 5 (13.2) n (%)
With only one dose interruption (patients with MUM; All QD n=38): 6 (15.8) n (%)
Dose interruption by reason: adverse event (patients with MUM; All patients N=68): 16 (23.5) n (%)
Dose interruption by reason: patient/guardian decision (patients with MUM; All patients N=68): 1 (1.5) n (%)
Dose interruption by reason: physician decision (patients with MUM; All patients N=68): 1 (1.5) n (%)
With at least one dose interruption (patients with MUM; All patients N=68): 17 (25) n (%)
With more than one dose interruption (patients with MUM; All patients N=68): 8 (11.8) n (%)
With only one dose interruption (patients with MUM; All patients N=68): 9 (13.2) n (%)
Cellular activity [2]: cellular activity restricted to UM cell lines containing mutant GNAQ or GNA11
pPKC delta, mean (range) percentage change from baseline to C1D15 (normalised ratio) (PKC delta (pPKCd, S299)): −68.1 (−91.4, −28.6) %
Tumour effect as single agent (92.1 human UM xenograft): tumour regression
